Results taken from patent publication US20250380697A1, “ISOXAZOLINE DERIVATIVE COMPOUND AND INSECTICIDAL COMPOSITION COMPRISING SAME” (KYUNG NONG CORPORATION, priority 2022, published 2025).

How the values were obtained:
Type in all cases: in vivo
Plutella xylostella = test: Pesticidal activity against Plutella xylostella, leaf-dipping method; settings: 48 h, read-out: larvae mortality rate against Plutella xylostella
Description: Cabbage (Daiya) leaves were cut into pieces with a diameter of 5.8 cm, dipped in each of the pesticide compositions prepared in Examples (a 5% acetone solution in which each of the compounds of Synthesis Examples (concentration: 100 ppm) was diluted) for 30 seconds, and sufficiently shade-dried. Then, the shade-dried cabbage leaves were placed in a petri dish (8.8 cm in diameter) covered with a filter paper and repeatedly inoculated 3 times with third instar larvae of Plutella xylostella, 10 larvae per inoculation. In particular, Plutella xylostella larvae used were those which were collected in a place near Gyeongju (Korea) in 2000 and bred in a breeding room for multiple generations. Then, the Plutella xylostella larvae were stored under the conditions of 16 hours of light and 8 hours of dark, 25±1° C., and relative humidity of 50-60%, and the number of live Plutella xylostella larvae was counted 48 hours after the inoculation. Thereafter, the larvae mortality rate was calculated by correcting the density after treatment based on the density before treatment, as shown in Equation 1 and Equation 2 below, and converting the same into the corrected mortality rate for untreated (Reference: A method of computing the effectiveness of an insecticide. J. Econ. Entomol. 18:265˜267. Abbott, 1925).

Spodoptera litura = test: Pesticidal activity against Spodoptera litura, leaf-dipping method; settings: 48 h, read-out: mortality rate against Spodoptera litura
Description: Cabbage (Daiya) leaves were cut into pieces with a diameter of 5.8 cm, dipped in each of the pesticide compositions prepared in Examples (a 5% acetone solution in which each of the compounds of Synthesis Examples (concentration: 100 ppm) was diluted) for 30 seconds, and sufficiently shade-dried. Then, the shade-dried cabbage leaves were placed in a petri dish (8.8 cm in diameter) covered with a filter paper and repeatedly inoculated 3 times with the second instar larvae of Spodoptera litura, 10 larvae per inoculation. In this case, Spodoptera litura larvae used were those which were purchased from the Bio Utilization Institute (Andong, Korea). Then, the Spodoptera litura larvae were stored under the conditions of 16 hours of light and 8 hours of dark, 25±1° C., and relative humidity of 50-60%, and the number of live Spodoptera litura larvae was counted 48 hours after the inoculation. Thereafter, the larvae mortality rate was calculated in the same manner as in Test Example 1 above.

[1] = test system: Frankliniella occidentalis; test: Pesticidal activity against Frankliniella occidentalis, spray method; settings: 48 h, read-out: mortality rate against Frankliniella occidentalis
Text: A water-soaked filter paper (9.0 cm in diameter) was placed in an insect breeding dish (Lab Guide®) with a diameter of 9.0 cm and a height of 4.0 cm, and then parafilm (width 4.0 cm×height 4.0 cm) was placed thereon. Before treating with a pesticide composition, 10 adult Frankliniella occidentalis were inoculated per petri dish using a No. 4 brush. In this case, Frankliniella occidentalis adults used were those purchased from the Bio Utilization Institute (Andong, Korea). Then, each of the pesticide compositions prepared in Examples (a diluted solution in which each of the compounds of Synthesis Examples (concentration: 100 ppm) was diluted; the solvent=distilled water+acetone 50,000 mg/L+Triton X-100 100 mg/L) was loaded into a 100 mL small sprayer, and sprayed 10-12 times at a distance of 30 cm and a height of 50 cm, and one cotyledons of soybean, which is a host plant, were added one at a time. Then, the Frankliniella occidentalis adults were stored under the conditions of 16 hours of light and 8 hours of darkness, 25±1° C., and relative humidity of 50-60%, and the number of live Frankliniella occidentalis adults was counted 48 hours after the inoculation. Thereafter, the larvae mortality rate was calculated in the same manner as in Test Example 1 above.

Measured: mortality at 100 ppm

Cc1cc(C2=NOC(c3cc(Cl)cc(C(F)(F)F)c3)(C(F)(F)F)C2)ccc1C(=O)NC(=O)C1CCC1 (stereo not drawn) [Synthesis Example 33]
≥ 80%: all assays above

Cc1cc(C2=NOC(c3cc(Cl)cc(Cl)c3)(C(F)(F)F)C2)ccc1C(=O)NC(=O)c1ccccc1 (stereo not drawn) [Synthesis Example 37]
≥ 80%: all assays above

Cc1cc(C2=NOC(c3cc(Cl)cc(Cl)c3)(C(F)(F)F)C2)ccc1C(=O)NC(=O)C1CCCCC1 (stereo not drawn) [Synthesis Example 39]
≥ 80%: all assays above

Cc1cc(C2=NOC(c3cc(Cl)cc(C(F)(F)F)c3)(C(F)(F)F)C2)ccc1C(=O)NC(=O)C1CCCCC1 (stereo not drawn) [Synthesis Example 40]
≥ 80%: all assays above

Cc1cc(C2=NOC(c3cc(Cl)cc(Cl)c3)(C(F)(F)F)C2)ccc1C(=O)NC(=O)c1cn(C)nc1C(F)F (stereo not drawn) [Synthesis Example 45]
≥ 80%: all assays above

Cn1cc(C(=O)NC(=O)c2ccc(C3=NOC(c4cc(Cl)cc(Cl)c4)(C(F)(F)F)C3)c3ccccc23)c(C(F)F)n1 (stereo not drawn) [Synthesis Example 46]
≥ 80%: all assays above

Cc1cc(C2=NOC(c3cc(Cl)cc(Cl)c3)(C(F)(F)F)C2)ccc1C(=O)NC(=O)c1cn(C)nc1C(F)(F)F (stereo not drawn) [Synthesis Example 47]
≥ 80%: all assays above

Cc1cc(C2=NOC(c3cc(Cl)cc(Cl)c3)(C(F)(F)F)C2)ccc1C(=O)NC(=O)C1(F)CC1 (stereo not drawn) [Synthesis Example 49]
≥ 80%: all assays above

Cc1cc(C2=NOC(c3cc(Cl)cc(Cl)c3)(C(F)(F)F)C2)ccc1C(=O)NC(=O)C1CC1(F)F (stereo not drawn) [Synthesis Example 50]
≥ 80%: all assays above

Cc1cc(C2=NOC(c3cc(Cl)cc(Cl)c3)(C(F)(F)F)C2)ccc1C(=O)NC(=O)C1CC12CCC2 (stereo not drawn) [Synthesis Example 52]
≥ 80%: all assays above

Cc1cc(C2=NOC(c3cc(Cl)cc(Cl)c3)(C(F)(F)F)C2)ccc1C(=O)NC(=O)C1CC1C1CC1 (stereo not drawn) [Synthesis Example 53]
≥ 80%: all assays above

Cc1cc(C2=NOC(c3cc(Cl)cc(Cl)c3)(C(F)(F)F)C2)ccc1C(=O)NC(=O)CC1CC1 (stereo not drawn) [Synthesis Example 55]
≥ 80%: all assays above

Cc1cc(C(=O)NC(=O)c2ccc(C3=NOC(c4cc(Cl)cc(Cl)c4)(C(F)(F)F)C3)cc2C)c(C)o1 (stereo not drawn) [Synthesis Example 56]
≥ 80%: all assays above

Cc1cc(C(=O)NC(=O)c2ccc(C3=NOC(c4cc(Cl)cc(C(F)(F)F)c4)(C(F)(F)F)C3)cc2C)c(C)o1 (stereo not drawn) [Synthesis Example 57]
≥ 80%: all assays above

Cc1cc(C2=NOC(c3cc(Cl)cc(Cl)c3)(C(F)(F)F)C2)ccc1C(=O)NC(=O)c1ccco1 (stereo not drawn) [Synthesis Example 58]
≥ 80%: all assays above

Cc1cc(C2=NOC(c3cc(Cl)cc(C(F)(F)F)c3)(C(F)(F)F)C2)ccc1C(=O)NC(=O)c1ccco1 (stereo not drawn) [Synthesis Example 59]
≥ 80%: all assays above

Cc1cc(C2=NOC(c3cc(Cl)cc(C(F)(F)F)c3)(C(F)(F)F)C2)ccc1C(=O)NC(=O)C1CCOCC1 (stereo not drawn) [Synthesis Example 65]
≥ 80%: all assays above

Cc1cc(C2=NOC(c3cc(Cl)cc(Cl)c3)(C(F)(F)F)C2)ccc1C(=O)NC(=O)N1CCCCC1 (stereo not drawn) [Synthesis Example 66]
≥ 80%: all assays above

Cc1cc(C2=NOC(c3cc(Cl)cc(C(F)(F)F)c3)(C(F)(F)F)C2)ccc1C(=O)NC(=O)N1CCCCC1 (stereo not drawn) [Synthesis Example 67]
≥ 80%: all assays above

Cc1cc(C2=NOC(c3cc(Cl)cc(Cl)c3)(C(F)(F)F)C2)ccc1C(=O)NC(=O)C1CCCC1 (stereo not drawn) [Synthesis Example 68]
≥ 80%: all assays above

Cc1cc(C2=NOC(c3cc(Cl)cc(C(F)(F)F)c3)(C(F)(F)F)C2)ccc1C(=O)NC(=O)C1CCCC1 (stereo not drawn) [Synthesis Example 69]
≥ 80%: all assays above

CC(C)=CC(=O)NC(=O)c1ccc(C2=NOC(c3cc(Cl)cc(C(F)(F)F)c3)(C(F)(F)F)C2)cc1C (stereo not drawn) [Synthesis Example 70]
≥ 80%: all assays above

C/C=C/C(=O)NC(=O)c1ccc(C2=NOC(c3cc(Cl)cc(C(F)(F)F)c3)(C(F)(F)F)C2)cc1C (stereo not drawn) [Synthesis Example 71]
≥ 80%: all assays above

C/C=C/C=C/C(=O)NC(=O)c1ccc(C2=NOC(c3cc(Cl)cc(C(F)(F)F)c3)(C(F)(F)F)C2)cc1C (stereo not drawn) [Synthesis Example 72]
≥ 80%: all assays above

Cc1cc(C2=NOC(c3cc(Cl)cc(C(F)(F)F)c3)(C(F)(F)F)C2)ccc1C(=O)NC(=O)CC1CC1 (stereo not drawn) [Synthesis Example 75]
≥ 80%: all assays above

Cc1cc(C2=NOC(c3cc(Cl)cc(C(F)(F)F)c3)(C(F)(F)F)C2)ccc1C(=O)NC(=O)c1ccc(C#N)cc1 (stereo not drawn) [Synthesis Example 76]
≥ 80%: all assays above

Cc1cc(C2=NOC(c3cc(Cl)cc(C(F)(F)F)c3)(C(F)(F)F)C2)ccc1C(=O)NC(=O)c1nccs1 (stereo not drawn) [Synthesis Example 78]
≥ 80%: all assays above

Cc1cc(C2=NOC(c3cc(Cl)cc(Cl)c3)(C(F)(F)F)C2)ccc1C(=O)NC(=O)c1nccs1 (stereo not drawn) [Synthesis Example 79]
≥ 80%: all assays above

Cc1cc(C(=O)NC(=O)c2ccc(C3=NOC(c4cc(Cl)cc(Cl)c4)(C(F)(F)F)C3)cc2C)no1 (stereo not drawn) [Synthesis Example 80]
≥ 80%: all assays above
